Data taken from patent US5395947A, “Platinum(II) complex and processes for preparing the same” (Sunkyong Industries, Ltd., priority 1991, dated 1995).

Legend:
[1] = system: murine leukemia L1210 cells; test: Growth inhibition test on cultured murine leukemia L1210 cells; assay type: cell-based; settings: 48 hours, 37° C., Trypan blue viability
Experimental: 1. Growth inhibition test on cultured murine leukemia L1210 cells
Murine leukemia L1210 cells(1×10^5) were treated with various concentrations of the compounds prepared in the above examples in RPMI 1640 medium supplemented with 10% fetal calf serum, and cultured in a 5% CO2 humidified incubator at 37° C. for 48 hours. Their viability, estimated by staining with 0.17% Trypan blue, was compared with that of control cells cultured in the identical medium without the compounds.

murine leukemia L1210 = test: Antitumor activity test on murine leukemia L1210 in vivo; parameters: species or system male BDF1 mice; settings: days 1, 5, 9
Experimental: 2. Antitumor activity test on murine leukemia L1210 in vivo
Murine leukemia L1210 cells were maintained in the peritoneal cavities of 6-week-old male DBA/2 mice by weekly transfer in accordance with the procedure described in cancer chemotherapy Reports, Part 3, 3(2), 7 (1972). Specifically, 1×10^6 leukemia cells were inoculated into the abdominal cavities of 6-week-old male BDF1 mice weighing 21±3 g on day 0. Each treatment group consisted of seven mice. The test compounds were dissolved or suspended in 0.5% carboxymethyl cellulose(CMC)solution (in water) and were administered intraperitoneally on days 1, 5, and 9 relative to the tumor inoculation.
Thirty mice of 6-week-old male BDF1 weighing 21±3 g were used as the control group, which were injected with 0.5% CMC solution only in the same manner as above.
Anti-tumor activities of the compounds were evaluated in terms of the T/C % values calculated from the mean survival time(T) of the compound-treated group over that(C) of the control group. [formula]

Structure (SMILES) | IC50 (concentration required for 50% inhibition of growth) [1] | T/C (%) (murine leukemia L1210; 25 mg/kg i.p.) | T/C (%) (murine leukemia L1210; 50 mg/kg i.p.) | T/C (%) (murine leukemia L1210; 100 mg/kg i.p.) | T/C (%) (murine leukemia L1210; 3.1 mg/kg i.p.) | T/C (%) (murine leukemia L1210; 6.2 mg/kg i.p.) | T/C (%) (murine leukemia L1210; 12.5 mg/kg i.p.)
CCC1OC2C[NH2+][Pt-2]3([NH2+]CC2O1)[O]C(=O)C(C)(C)C(=O)[O]3 [Example 40, cis-dimethylmalonato[(4R,5R)-4,5-bis(aminomethyl)-2-ethyl-1,3-dioxolane]platinum(II)] | 0.52 µg/mL | 213% | 165% | 248% |  |  | 
NC[C@H]1OCO[C@@H]1CN.O=C1C[O][Pt][O]1 [Example 1, (glycolato-O,O')[(4R,5R)-4,5-bis(aminomethyl)-1,3-dioxolane]platinum(II)] | 0.36 µg/mL | 160% | toxic |  | 95% | 132% | 137%
CC1[O][Pt][O]C1=O.NCC1OCOC1CN [Example 13, (L-lactato-O,O')[(4R,5R)-4,5-bis(aminomethyl)-1,3-dioxolane]platinum(II)] | 0.55 µg/mL | 207% | 92% |  |  |  | 178%
CCC1OC2C[NH2+][Pt-2]3([NH2+]CC2O1)[O]C(=O)CC(=O)[O]3 [Example 35, cis-malonato[(4R,5R)-4,5-bis(aminomethyl)-2-ethyl-1,3-dioxolane]platinum(II)] | 0.44 µg/mL | 204% | 245% |  |  |  | 144%
CC1OC(CN)C(CN)O1.CC1[O][Pt][O]C1=O [Example 17, (L-lactato-O,O')[(4R,5R)-4,5-bis(aminomethyl)-2-methyl-1,3-dioxolane]platinum(II)] | 0.44 µg/mL | 327% | 139% |  |  |  | 201%
CC(C)C1O[C@H](C[NH-])[C@@H](C[NH-])O1.O=C([O-])CC(=O)[O-].[Pt+4] (relative stereo) [Example 38, cis-malonato[(4R,5R)-4,5-bis(aminomethyl)-2-isopropyl-1,3-dioxolane]platinum(II)] | 0.43 µg/mL | 148% | 220% |  |  |  | 123%
CC1O[C@H](CN)[C@@H](CN)O1.O=C1C[O][Pt][O]1 [Example 5, (glycolato-O,O')[(4R,5R)-4,5-bis(aminomethyl)-2-methyl-1,3-dioxolane]platinum(II)] | 0.35 µg/mL |  | toxic |  | 104% | 136% | 154%
O=C1CC(=O)[O][Pt-2]2([NH2+]CC3OC4(CCCC4)OC3C[NH2+]2)[O]1 [Example 39, cis-malonato[(4R,5R)-4,5-bis(aminomethyl)-1,3-dioxolane-2-spiro-1'-cyclopentane]platinum(II)] | 0.31 µg/mL | 169% | 203% |  |  |  | 217%
